Laboratory results published in US4177271A, “Hydroxy- and oxo-substituted α-benzylidenylcycloalkanes” (Unicler, priority 1977, dated 1979).

What was measured:
[1] = Acute toxicity (LD50), mice, intraperitoneal route, Log-Probits method of Miller and Tainter; type: in vivo; details: mouse, in vivo, ip
Procedure: (§1) The LD50 of the products was determined in mice by the intraperitoneal route according to the "Log-Probits" method of Miller and Tainter (Proc. Soc. Exptl. Biol. Med. 1944; 57, 261-264).

[2] = tested on: blepharospasm produced by reserpine; test: Antagonism vis-a-vis reserpine (blepharospasm) in mice; type: in vivo, Swiss male mice; set-up: key: The inhibition of blepharospasm is recorded from 0 to +++; The inhibition of blepharospasm is recorded from 0 to +++; details: reserpine 5 mg/kg IP
Procedure: (§2) This was investigated by observing the behaviour of the animal by studying the modification in hexobarbital-induced narcosis and antagonism vis-a-vis reserpine.
(Chen G., and Bohner B., (1961) J. pharmacol Exptl. Therap. 131, 179).
Reserpine when administered intraperitoneally to mice in a dosage of 5 mg/kg causes the eyelids to close more or less completely in the majority of animals. The administration of certain products will inhibit the blepharospasm produced by reserpine.
Swiss male mice are distributed into groups of 10 mice, and each experiment includes at least 3 groups:
a control group that receives only the solvent and reserpine
a group treated with a reference product (we chose Imipramine)
a treated group that receives the product being tested.
The products under investigation are administered intraperitoneally at 30 minutes or 2 hours before intraperitoneal injection of reserpine in a dosage of 5 mg/kg, so as to study their activity as a function of time.
The degree of ptosis for each eye and each animal is observed every 30 minutes for 4 to 5 hours, using RUBIN's score method. The activity of the product is determined by comparison with the result obtained with the treated control group. The inhibition of blepharospasm is recorded from 0 to +++.

[3] = tested on: hexobarbital-induced narcosis; test: Modification (potentialisation) of hexobarbital-induced narcosis in mice; type: in vivo; details: Mus musculus, sodium hexobarbital 70 mg/kg IP half an hour later, read-out: Narcosis potentialisation, T (percentage increase in sleep time induced by hexobarbital); for change in vivo at 200 mg/kg: 200 mg/kg IP; for change in vivo at 100 mg/kg: 100 mg/kg IP; for change in vivo at 10 mg/kg: 10 mg/kg IP
Procedure: as §2
Mice, each weighing about 20 g, received intraperitoneally the product being investigated. Half an hour later sodium hexobarbital was injected by the same route at a dosage of 70 mg/kg.
The animals were placed on a hot plate maintained at a constant temperature of 27° C. Sleep is considered to have occurred as soon as a mouse, placed in the dorsal decubitus position, is incapable of turning over onto its paws.
The narcosis potentialisation is evaluated from the percentage increase in sleep time induced by hexobarbital (T).

mice = test: Acute toxicity (LD50), mice, intraperitoneal route, Log-Probits method of Miller and Tainter; type: in vivo
Procedure: as §1

central nervous system = test: Activity on the central nervous system (overall conclusion); set-up: species or system mice; details: mouse, in vivo
Text: as §2

SMILES: COc1ccc(C=C2CCCC(C)C2O)cc1OC (centres unmarked) [compound 1267]
- LD50 [1]: 900 mg/kg

SMILES: CC1CCCC(=Cc2cc3c(cc2Cl)OCO3)C1O (centres unmarked) [compound 1275]
- Blepharospasm (inhibition) ([2]; 200 mg/kg IP): 0
- change in vivo at 200 mg/kg [3]: 56%
- LD50 [1]: 2000 mg/kg

SMILES: COc1cc(C=C2CCCC(C)C2=O)cc(OC)c1OC (centres unmarked) [compound 1268]
- change in vivo at 100 mg/kg [3]: 60%
- LD50 [1]: 1000 mg/kg

SMILES: CC1CCC(=O)C(=Cc2ccc3c(c2)OCO3)C1 (centres unmarked) [compound 994]
- Blepharospasm (inhibition) ([2]; 200 mg/kg IP): 0
- change in vivo at 200 mg/kg [3]: 103%
- LD50 [1]: 2000 mg/kg

SMILES: CN1CC(=Cc2ccc3c(c2)OCO3)C(O)C(=Cc2ccc3c(c2)OCO3)C1 (centres unmarked) [compound 1324]
- Blepharospasm (inhibition) ([2]; 200 mg/kg IP): 0
- change in vivo at 200 mg/kg [3]: 83%
- DL0 (IP) (mice): ≥ 2000 mg/kg

SMILES: CN(C)CC1(C)CCCC(=Cc2ccc3c(c2)OCO3)C1O (centres unmarked) [compound 1349]
- change in vivo at 10 mg/kg [3]: 10%
- LD50 [1]: 100 mg/kg

SMILES: O=C1CCCC1=Cc1ccc2c(c1)OCO2 [compound 1386]
- Blepharospasm (inhibition) ([2]; 130 mg/kg IP): 0
- change in vivo at 130 mg/kg ([3]; 130 mg/kg IP): 190%
- LD50 [1]: 1300 mg/kg

SMILES: CC1CCCC(=Cc2ccc3c(c2)OCO3)C1=O (centres unmarked) [compound 993]
- Blepharospasm (inhibition) ([2]; 200 mg/kg IP): 0
- change in vivo at 200 mg/kg [3]: 385%
- LD50 [1]: 2000 mg/kg

SMILES: OC1CCCC1=Cc1ccc2c(c1)OCO2 (centres unmarked) [compound 1387]
- Blepharospasm (inhibition) ([2]; 10 mg/kg IP): 0
- change in vivo at 10 mg/kg [3]: 40%
- LD50 [1]: 100 mg/kg

SMILES: COc1cc(C=C2CCCC(C)C2O)cc(OC)c1OC (centres unmarked) [compound 1269]
- Blepharospasm (inhibition) ([2]; 110 mg/kg IP): 0
- change in vivo at 110 mg/kg ([3]; 110 mg/kg IP): 66%
- LD50 [1]: 1100 mg/kg

SMILES: OC1C(=Cc2ccc3c(c2)OCO3)CCCC1CN1CCOCC1 (centres unmarked) [compound 1347]
- change in vivo at 100 mg/kg [3]: 60%
- LD50 [1]: 1000 mg/kg

SMILES: COc1ccc(C=C2CCCC(C)C2=O)c(OC)c1OC (centres unmarked) [compound 1270]
- LD50 [1]: 1000 mg/kg

SMILES: CC1CC(=Cc2ccc3c(c2)OCO3)C(=O)C(=Cc2ccc3c(c2)OCO3)C1 (centres unmarked) [compound 1059]
- Blepharospasm (inhibition) ([2]; 200 mg/kg IP): 0
- change in vivo at 200 mg/kg [3]: 0%
- DL0 (IP) (mice): ≥ 2000 mg/kg

SMILES: CN1CCN(CC2(C)CCCC(=Cc3ccc4c(c3)OCO4)C2=O)CC1 (centres unmarked) [compound 1352]
- Blepharospasm (inhibition) ([2]; 15 mg/kg IP): 0
- change in vivo at 15 mg/kg ([3]; 15 mg/kg IP): 0%
- LD50 [1]: 150 mg/kg

SMILES: CC1CCC(O)C(=Cc2ccc3c(c2)OCO3)C1 (centres unmarked) [compound 1446]
- LD50 [1]: 1500 mg/kg

SMILES: OC1C(=Cc2ccc3c(c2)OCO3)CCc2ccccc21 (centres unmarked) [compound 1388]
- Blepharospasm (inhibition) ([2]; 200 mg/kg IP): 0
- change in vivo at 200 mg/kg [3]: 10%
- DL0 (IP) (mice): > 200 mg/kg

SMILES: CC1CCCC(=Cc2cc3c(cc2Cl)OCO3)C1=O (centres unmarked) [compound 1274]
- change in vivo at 200 mg/kg [3]: 99%
- DL0 (IP) (mice): ≥ 2000 mg/kg

SMILES: CC1CCCC(=Cc2ccc3c(c2)OCO3)C1O (centres unmarked) [Code No. 1040, 2-(3,4-methylenedioxybenzylidene)-6-methylcyclohexanol or 2-piperonylidene-6-methylcyclohexanol]
- change in vivo at 100 mg/kg [3]: 174%
- usefulness as an anti-depressant (central nervous system): particularly useful as an anti-depressant
- LD50 [1]: 1000 mg/kg

SMILES: O=C1C(=Cc2ccc3c(c2)OCO3)Cc2ccccc21 [compound 1292]
- Blepharospasm (inhibition) ([2]; 200 mg/kg IP): 0
- change in vivo at 200 mg/kg [3]: 62%
- DL0 (IP) (mice): ≥ 2000 mg/kg

SMILES: O=C1C(=Cc2ccc3c(c2)OCO3)CCc2ccccc21 [compound 1293]
- Blepharospasm (inhibition) ([2]; 200 mg/kg IP): 0
- change in vivo at 200 mg/kg [3]: 30%
- DL0 (IP) (mice): ≥ 2000 mg/kg

SMILES: COc1ccc(C=C2CCCC(C)C2=O)cc1OC (centres unmarked) [compound 1266]
- Blepharospasm (inhibition) ([2]; 70 mg/kg IP): 0
- change in vivo at 70 mg/kg ([3]; 70 mg/kg IP): 0%
- LD50 [1]: 700 mg/kg

SMILES: OC1C(=Cc2ccc3c(c2)OCO3)Cc2ccccc21 (centres unmarked) [compound 1322]
- Blepharospasm (inhibition) ([2]; 150 mg/kg IP): 0
- change in vivo at 150 mg/kg ([3]; 150 mg/kg IP): 116%
- LD50 [1]: 1500 mg/kg

SMILES: COc1ccc(C=C2CCCC(C)C2O)c(OC)c1OC (centres unmarked) [compound 1271]
- Blepharospasm (inhibition) ([2]; 50 mg/kg IP): 0
- change in vivo at 50 mg/kg ([3]; 50 mg/kg IP): 0%
- LD50 [1]: 500 mg/kg
